Reference: patent US6046331A, “Imidazolones and their use in treating benign prostatic hyperplasia and other disorders” (Synaptic Pharmaceutical Corporation, priority 1998, dated 2000)

Assays:
human α1a receptor = target: T1, human α1a receptor (Homo sapiens, UniProt P35348); experiment: Radioligand binding ([^3 H]prazosin) at cloned human α1a receptor; conditions: LM(tk-) cell membranes, read-out: hα1a Ki
T1 construct: The entire coding region of α1a (1401 bp); expressed in transfected cells; host or cells: LM(tk-) mouse fibroblast line L-α1C (old nomenclature), ATCC CR 11140
T1 sequence (P35348 1-466): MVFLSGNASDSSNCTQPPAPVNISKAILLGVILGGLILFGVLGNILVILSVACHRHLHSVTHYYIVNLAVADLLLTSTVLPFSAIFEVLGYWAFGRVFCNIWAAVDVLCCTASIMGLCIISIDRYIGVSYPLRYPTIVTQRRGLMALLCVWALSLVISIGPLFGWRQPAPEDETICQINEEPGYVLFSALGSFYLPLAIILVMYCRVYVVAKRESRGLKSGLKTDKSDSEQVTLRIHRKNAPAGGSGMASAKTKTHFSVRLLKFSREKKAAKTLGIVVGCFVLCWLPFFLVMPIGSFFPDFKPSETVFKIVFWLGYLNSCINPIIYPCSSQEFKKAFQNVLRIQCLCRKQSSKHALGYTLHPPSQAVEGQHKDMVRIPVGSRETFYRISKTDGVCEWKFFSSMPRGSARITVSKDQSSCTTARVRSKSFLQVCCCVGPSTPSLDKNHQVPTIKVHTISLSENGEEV
Protocol: (§1) Binding affinities were measured for selected compounds of the invention at six cloned human α1 and α2 receptor subtypes, as well as at the L-type calcium channel. The protocols for these experiments are given below.
(§2) The activity of compounds at the different human receptors was determined in vitro using cultured cell lines that selectively express the receptor of interest. These cell lines were prepared by transfecting the cloned cDNA or cloned genomic DNA or constructs containing both genomic DNA and cDNA encoding the human α-adrenergic receptors as follows:
α1a Human Adrenergic Receptor: The entire coding region of α1a (1401 bp), including 400 base pairs of 5' untranslated sequence (5' UT) and 200 bp of 3' untranslated sequence (3' UT), was cloned into the KpnI site of the polylinker-modified pCEXV-3-derived eukaryotic expression vector, EXJ.RH. The construct involved ligating three partial overlapping fragments: a 5' 0.6 kb HincII genomic clone, a central 1.8 EcoRI hippocampal cDNA clone, and a 3' 0.6Kb PstI genomic clone. The hippocampal cDNA fragment overlaps with the 5' and 3' genomic clones so that the HincII and PstI sites at the 5' and 3' ends of the cDNA clone, respectively, were utilized for ligation. This full-length clone was cloned into the KpnI site of the expression vector, using the 5' and 3' KpnI sites of the fragment, derived from vector (i.e., pBluescript) and 3'-untranslated sequences, respectively. Stable cell lines were selected as described above. The stable cell line expressing the human α1a receptor used herein was designated L-α1C (old nomenclature) and was deposited with the American Type Culture Collection, 12301 Parklawn Drive, Rockville, Md. 20852, U.S.A. under the provisions of the Budapest Treaty for the International Recognition of the Deposit of Microorganisms for the Purposes of Patent Procedure. The cell line expressing the human α1a receptor was accorded Accession No. CR 11140, on Sep. 25, 1992.
(§3) Radioligand Binding Assays for α1 receptors:
(§4) Transfected cells from culture flasks were scraped into 5 ml of 5 mM Tris-HCl, 5 mM EDTA, pH 7.5, and lysed by sonication. The cell lysates were centrifuged at 1000 rpm for 5 min at 4° C., and the supernatant was centrifuged at 30,000× g for 20 min at 4° C. The pellet was suspended in 50 mM Tris-HCl, 1 mM MgCl2, and 0.1% ascorbic acid at pH 7.5. Binding of the α1 antagonist [^3 H]prazosin (0.5 nM, specific activity 76.2 Ci/mmol) to membrane preparations of LM(tk-) cells was done in a final volume of 0.25 ml and incubated at 37° C. for 20 min. Nonspecific binding was determined in the presence of […] phentolamine. The reaction was stopped by filtration through GF/B filters using a cell harvester. Inhibition experiments, routinely consisting of 7 concentrations of the tested compounds, were analyzed using a non-linear regression curve-fitting computer program to obtain Ki values.
(§5) The compounds described above were assayed using cloned human alpha adrenergic receptors. […] The binding affinities of several compounds are illustrated in the following table.
(§6) Binding affinities of selected compounds of the present invention at cloned human α1d, α1b and α1a receptors. (h=human)

human α1b receptor = target: T2, human α1b receptor (Homo sapiens, UniProt P35368); experiment: Radioligand binding ([^3 H]prazosin) at cloned human α1b receptor; conditions: LM(tk-) cell membranes, read-out: hα1b Ki
T2 construct: The entire coding region of α1b (1563 bp); expressed in transfected cells; host or cells: LM(tk-) mouse fibroblast line L-α1B, ATCC CR 11139
T2 sequence (P35368 1-520): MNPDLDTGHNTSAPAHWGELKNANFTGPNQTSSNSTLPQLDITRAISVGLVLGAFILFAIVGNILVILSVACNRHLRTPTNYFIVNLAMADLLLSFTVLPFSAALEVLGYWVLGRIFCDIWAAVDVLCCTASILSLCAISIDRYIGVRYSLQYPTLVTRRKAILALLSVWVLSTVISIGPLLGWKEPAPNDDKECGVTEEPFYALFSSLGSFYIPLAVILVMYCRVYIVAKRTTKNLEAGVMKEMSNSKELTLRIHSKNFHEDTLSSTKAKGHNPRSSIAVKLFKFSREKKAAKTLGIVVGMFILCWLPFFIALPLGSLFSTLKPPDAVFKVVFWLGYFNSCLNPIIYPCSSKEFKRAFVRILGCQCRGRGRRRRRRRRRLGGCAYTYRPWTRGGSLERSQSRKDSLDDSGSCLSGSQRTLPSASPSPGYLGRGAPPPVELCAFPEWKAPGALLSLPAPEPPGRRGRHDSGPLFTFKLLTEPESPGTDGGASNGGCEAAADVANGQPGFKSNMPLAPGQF
Protocol: as §1, §2
α1b Human Adrenergic Receptor: The entire coding region of α1b (1563 bp), including 200 base pairs and 5' untranslated sequence (5' UT) and 600 bp of 3' untranslated sequence (3' UT), was cloned into the EcoRI site of pCEXV-3 eukaryotic expression vector. The construct involved ligating the full-length containing EcoRI brainstem cDNA fragment from λ ZapII into the expression vector. Stable cell lines were selected as described above. The cell line used herein was designated L-α1B and was deposited with the American Type Culture Collection, 12301 Parklawn Drive, Rockville, Md. 20852, U.S.A. under the provisions of the Budapest Treaty for the International Recognition of the Deposit of Microorganisms for the Purposes of Patent Procedure. The cell line L-α1B was accorded ATCC Accession No. CR 11139, on Sep. 29, 1992.
as §3, §4, §5, §6

SMILES: COC(=O)c1[nH]c(=O)n(CCCCCN2CCC(C(=O)OC)(c3ccccc3)CC2)c1-c1ccc(F)c(F)c1 [Compound 1, 1-(5-(4-Methoxycarbonyl-4-phenylpiperidin-1-yl)pent-1-yl)-4-methoxycarbonyl-5-(3,4-difluorophenyl)-2,3-dihydro-2(1H)-imidazolone]
- Ki (human α1a receptor): 0.0018 µM
- Ki (human α1b receptor): 0.309 µM

SMILES: COC(=O)c1[nH]c(=O)n(CCCCCN2CCC(C#N)(c3ccccc3)CC2)c1-c1ccc(F)c(F)c1 [Compound 2, 5-(3,4-Difluorophenyl)-2,3-dihydro-4-methoxycarbonyl-1-(5-(4-cyano-4-phenylpiperidin-1-yl)pent-1-yl)-2(1H)-imidazolone]
- Ki (human α1a receptor): 0.0041 µM
- Ki (human α1b receptor): 0.347 µM

SMILES: COC(=O)c1[nH]c(=O)n(CCCCCN2CCC(O)(c3ccccc3)CC2)c1-c1ccc(F)c(F)c1 [Compound 3, 5-(3,4-Difluorophenyl)-2,3-dihydro-4-methoxycarbonyl-1-(5-(4-hydroxy-4-phenylpiperidin-1-yl)pent-1-yl)-2(1H)-imidazolone]
- Ki (human α1a receptor): 0.0211 µM
- Ki (human α1b receptor): 1.58 µM

SMILES: COC(=O)c1[nH]c(=O)n(CCCCCN2CCN(c3ccccc3C(N)=O)CC2)c1-c1cc(F)c(F)c(F)c1 [Compound 4, 1-(5-(4-(2-Aminocarbonylphenyl)piperazin-1-yl)pent-1-yl)-5-(3,4,5-trifluorophenyl)-2,3-dihydro-4-methoxycarbonyl-2(1H)-imidazolone]
- Ki (human α1a receptor): 0.0015 µM
- Ki (human α1b receptor): 0.159 µM

SMILES: COC(=O)c1ccccc1N1CCN(CCCCCn2c(-c3cc(F)c(F)c(F)c3)c(C(=O)OC)[nH]c2=O)CC1 [Compound 5, 5-(3,4,5-Trifluorophenyl)-2,3-dihydro-4-methoxycarbonyl-1-(5-(4-(2-methoxycarbonylphenyl)piperazin-1-yl)pent-1-yl)-2(1H)-imidazolone]
- Ki (human α1a receptor): 0.0001 µM
- Ki (human α1b receptor): 0.0117 µM

SMILES: CCOC(=O)c1[nH]c(=O)n(CCCCCN2CCN(c3ccccc3C(N)=O)CC2)c1-c1ccc(F)c(F)c1 [Compound 6, 1-(5-(4-(2-Aminocarbonylphenyl)piperazin-1-yl)pent-1-yl)-4-ethoxycarbonyl-5-(3,4-difluorophenyl)-2,3-dihydro-2(1H)-imidazolone]
- Ki (human α1a receptor): 0.0014 µM
- Ki (human α1b receptor): 0.11 µM

SMILES: COC(=O)c1[nH]c(=O)n(CCCCCN2CCN(c3ccccc3C(N)=O)CC2)c1-c1cc(F)c(F)cc1F [Compound 7, 1-(5-(4-(2-Aminocarbonylphenyl)piperazin-1-yl)pent-1-yl)-5-(2,4,5-trifluorophenyl)-2,3-dihydro-4-methoxylcarboxy-2(1H)-imidazolone]
- Ki (human α1a receptor): 0.0012 µM
- Ki (human α1b receptor): 0.111 µM

SMILES: COC(=O)c1[nH]c(=O)n(CCCCCN2CCC(C(=O)OC)(c3ccccc3)CC2)c1Cc1ccc(F)c(F)c1 [Compound 37, 5-(3,4-Difluorobenzyl)-2,3-dihydro-4-methoxycarbonyl-1-(5-(4-methoxycarbonyl-4-phenylpiperidin-1-yl)pent-1-yl)-2(1H) -imidazolone]
- Ki (human α1a receptor): 0.0045 µM
- Ki (human α1b receptor): 0.558 µM
